Series [1] deals with T1, human CYP2C9 (Homo sapiens, UniProt P11712).
A further series addresses human CYP2D6 (Homo sapiens, UniProt P10635).
Another series deals with CYP3A4 (Homo sapiens, UniProt P08684).
Series [2] concerns the target T2, human CYP2C19 (Homo sapiens, UniProt P33261).
The next series addresses T3, human CYP1A2 (Homo sapiens, UniProt P05177).
T3 sequence (P05177 1-516): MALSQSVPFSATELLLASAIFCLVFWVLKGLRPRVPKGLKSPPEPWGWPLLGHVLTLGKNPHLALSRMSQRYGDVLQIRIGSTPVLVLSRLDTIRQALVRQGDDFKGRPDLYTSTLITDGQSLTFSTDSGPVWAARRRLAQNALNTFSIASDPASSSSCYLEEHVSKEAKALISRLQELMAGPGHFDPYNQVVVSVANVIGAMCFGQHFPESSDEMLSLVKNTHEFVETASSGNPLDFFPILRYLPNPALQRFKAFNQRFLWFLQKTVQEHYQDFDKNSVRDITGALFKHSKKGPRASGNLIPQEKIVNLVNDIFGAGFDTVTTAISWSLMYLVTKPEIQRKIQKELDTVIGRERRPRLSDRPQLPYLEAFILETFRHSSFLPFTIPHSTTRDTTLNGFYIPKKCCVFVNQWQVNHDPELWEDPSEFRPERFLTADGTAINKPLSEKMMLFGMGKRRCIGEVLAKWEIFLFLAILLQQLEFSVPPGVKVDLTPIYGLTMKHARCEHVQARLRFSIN

For series [3], the target named is T2, human CYP2C19. Kind of series: biochemical. The settings on record: CYP2C19 AC50 (half-maximal activity concentration).
Series [4] deals with T1, human CYP2C9. The experiment in a line: biochemical. The following applies: CYP2C9 AC50 (half-maximal activity concentration).

A word on the AC50: it is the midpoint of the concentration-response curve, whichever way the signal moves.

Counter-ions that a name gives are not always drawn. Like-named read-outs stand apart in the source and are kept apart here.

T1 sequence (P11712 whole entry): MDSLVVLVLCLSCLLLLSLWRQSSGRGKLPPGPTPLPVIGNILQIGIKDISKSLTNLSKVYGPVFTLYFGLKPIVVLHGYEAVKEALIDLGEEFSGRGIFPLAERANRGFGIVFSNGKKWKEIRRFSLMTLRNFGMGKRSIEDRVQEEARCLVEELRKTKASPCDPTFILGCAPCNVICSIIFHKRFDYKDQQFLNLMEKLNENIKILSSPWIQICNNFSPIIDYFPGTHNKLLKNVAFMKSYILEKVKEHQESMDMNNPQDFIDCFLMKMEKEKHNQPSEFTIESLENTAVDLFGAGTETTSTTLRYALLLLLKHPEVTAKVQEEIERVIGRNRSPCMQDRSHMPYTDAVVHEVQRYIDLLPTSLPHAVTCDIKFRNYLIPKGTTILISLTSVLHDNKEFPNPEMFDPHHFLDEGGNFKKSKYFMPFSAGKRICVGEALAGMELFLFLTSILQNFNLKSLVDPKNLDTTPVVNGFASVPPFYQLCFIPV
T2 sequence (P33261 whole entry): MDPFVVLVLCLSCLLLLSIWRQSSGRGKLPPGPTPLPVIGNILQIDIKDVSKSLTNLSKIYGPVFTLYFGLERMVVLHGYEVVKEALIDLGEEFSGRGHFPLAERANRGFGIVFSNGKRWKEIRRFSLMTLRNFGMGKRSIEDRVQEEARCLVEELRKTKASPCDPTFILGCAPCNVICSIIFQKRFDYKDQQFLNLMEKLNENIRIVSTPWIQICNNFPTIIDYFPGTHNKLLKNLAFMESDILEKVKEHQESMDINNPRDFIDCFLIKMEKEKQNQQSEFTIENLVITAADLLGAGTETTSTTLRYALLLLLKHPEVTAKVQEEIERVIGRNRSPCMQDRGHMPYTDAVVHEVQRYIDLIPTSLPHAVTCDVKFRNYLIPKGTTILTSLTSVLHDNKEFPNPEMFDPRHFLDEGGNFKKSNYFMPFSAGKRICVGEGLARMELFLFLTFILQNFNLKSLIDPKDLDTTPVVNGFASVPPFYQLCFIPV
Chain of human CYP2D6 (P10635 whole entry): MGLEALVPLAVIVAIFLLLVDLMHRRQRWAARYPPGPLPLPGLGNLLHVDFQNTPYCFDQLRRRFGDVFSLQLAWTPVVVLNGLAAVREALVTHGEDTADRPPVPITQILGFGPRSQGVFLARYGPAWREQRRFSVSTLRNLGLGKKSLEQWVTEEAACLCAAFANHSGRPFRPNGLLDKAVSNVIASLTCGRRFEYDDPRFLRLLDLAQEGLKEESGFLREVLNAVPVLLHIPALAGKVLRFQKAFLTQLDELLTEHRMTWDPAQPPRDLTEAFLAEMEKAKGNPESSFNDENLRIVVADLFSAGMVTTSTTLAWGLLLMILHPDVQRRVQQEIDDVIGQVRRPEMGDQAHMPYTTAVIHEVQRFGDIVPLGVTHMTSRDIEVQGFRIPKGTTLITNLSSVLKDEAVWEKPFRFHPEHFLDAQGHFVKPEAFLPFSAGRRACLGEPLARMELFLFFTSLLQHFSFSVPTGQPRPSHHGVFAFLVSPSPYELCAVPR
Chain of CYP3A4 (P08684 whole entry): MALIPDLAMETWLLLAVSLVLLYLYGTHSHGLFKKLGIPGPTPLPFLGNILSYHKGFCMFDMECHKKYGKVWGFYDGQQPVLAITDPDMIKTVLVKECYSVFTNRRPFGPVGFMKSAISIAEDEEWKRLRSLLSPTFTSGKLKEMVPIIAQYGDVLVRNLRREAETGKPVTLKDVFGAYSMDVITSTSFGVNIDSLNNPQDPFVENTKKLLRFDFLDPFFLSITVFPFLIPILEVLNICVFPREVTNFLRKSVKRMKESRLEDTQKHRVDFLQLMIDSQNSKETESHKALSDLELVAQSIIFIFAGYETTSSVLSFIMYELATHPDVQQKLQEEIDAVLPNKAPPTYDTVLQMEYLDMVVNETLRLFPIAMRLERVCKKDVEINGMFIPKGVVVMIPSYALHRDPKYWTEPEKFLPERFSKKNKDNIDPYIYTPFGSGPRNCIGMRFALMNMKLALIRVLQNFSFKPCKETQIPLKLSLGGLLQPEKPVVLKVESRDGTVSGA

As to `CC(C)NC(=O)c1ccccc1N` [2-Amino-N-(1-methylethyl)benzamide], the “CYP2C9 AC50 (half-maximal activity concentration)” value (“CYP2C9 AC50” for short) at human CYP2C9 [1] is reported as “Inactive”. Besides, the “CYP2D6 AC50 (half-maximal activity concentration)” value (“CYP2D6 AC50” for short) at human CYP2D6 is “Inactive”. Further, the AC50 on CYP3A4 is 35.7 µM; on human CYP2C19 [2] it was 3.36 µM; at human CYP1A2, 51.1 µM.
Regarding `Brc1nc2ccccc2s1` [2-Bromobenzothiazole], the “CYP2C9 AC50” value at human CYP2C9 [1] is reported as “Inactive”. The “CYP2D6 AC50” value at human CYP2D6 was “Inactive”. The AC50 on CYP3A4 was 45.5 µM; at human CYP1A2, 11.1 µM. In addition, the “CYP2C19 AC50 (half-maximal activity concentration)” value (“CYP2C19 AC50” below) at human CYP2C19 [2] is “Inactive”.
Regarding `CC(=O)O[C@@H]1C[C@H]2[C@@H]3CCc4cc(OC(=O)c5ccccc5)ccc4[C@H]3CC[C@]2(C)[C@H]1OC(C)=O` [Estriol benzoate diacetate], the values for the AC50 on human CYP2C9 [1] and at CYP3A4 were 22.8 µM and 3.74 µM, respectively. Besides, the “CYP2D6 AC50” value on human CYP2D6 was “Inactive”. The “CYP2C19 AC50” value at human CYP2C19 [2] is given as “Inactive”. Further, the “CYP1A2 AC50 (half-maximal activity concentration)” value (“CYP1A2 AC50” below) on human CYP1A2 was “Inactive”.
In the case of `CN(C)CCc1c[nH]c2ccccc12.O=C(O)/C=C/C(=O)O` [N,N-Dimethyltryptamine fumarate], the “CYP2C9 AC50” value at human CYP2C9 [1] is on record as “Inactive”. Besides, the half-maximal activity concentration (AC50) at human CYP2D6 was found to be 34.6 µM; on CYP3A4, 89.9 µM. The “CYP2C19 AC50” value on human CYP2C19 [2] is listed as “Inactive”. The “CYP1A2 AC50” value on human CYP1A2 is listed as “Inactive”.
Consider `CCCCCCCCS(=O)(=O)Cl` [1-Octanesulfonyl chloride], for which the AC50 is 28.7 µM on human CYP2C9 [1] and 22.9 µM on CYP3A4. Moreover, the “CYP2D6 AC50” value at human CYP2D6 is listed as “Inconclusive inhibitor”. The “CYP2C19 AC50” value on human CYP2C19 [2] is on record as “Inconclusive inhibitor”. On human CYP1A2, the “CYP1A2 AC50” value is recorded as “Inactive”.
On to `c1ccc(CCCc2ccccn2)cc1` [2-(3-Phenylpropyl)pyridine], for which the AC50 at human CYP2C9 [1] is 33.1 µM; at human CYP2D6, 53.2 µM; on CYP3A4, 8.01 µM; on human CYP2C19 [2] it was 7.19 µM; on human CYP1A2, 31.2 µM.
For `OCC(CBr)(CBr)CBr` [3-Bromo-2,2-bis(bromomethyl)propanol], the AC50 at human CYP2C9 [1] amounted to 40.5 µM; on human CYP2C19 [2] it was 38.3 µM. Besides, on human CYP2D6, the “CYP2D6 AC50” value is “Inactive”. Besides, the “CYP3A4 AC50 (half-maximal activity concentration)” value (from here on “CYP3A4 AC50”) at CYP3A4 is recorded as “Inactive”. The “CYP1A2 AC50” value at human CYP1A2 is reported as “Inactive”.
With `CC(=O)c1cc2ccccc2s1` [2-Acetylbenzo[b]thiophene], the “CYP2C9 AC50” value at human CYP2C9 [1] is “Inactive”. Moreover, the “CYP2D6 AC50” value at human CYP2D6 is reported as “Inactive”. Moreover, the AC50 on CYP3A4 is 24.6 µM; at human CYP1A2 it was 6.92 µM. Further, the “CYP2C19 AC50” value at human CYP2C19 [2] is “Inactive”.
With `COC(=O)c1cc(S(N)(=O)=O)ccc1OC` [Methyl 5-sulfamoyl-o-anisate], the AC50 at human CYP2C9 [1] was 30.9 µM. The “CYP2D6 AC50” value on human CYP2D6 was “Inactive”. Also, the “CYP3A4 AC50” value at CYP3A4 is given as “Inactive”. Besides, the “CYP2C19 AC50” value on human CYP2C19 [2] is listed as “Inactive”. Further, at human CYP1A2, the “CYP1A2 AC50” value is recorded as “Inactive”.
On to `CCCCCCCCCCCCCCCCC(C(=O)O)C(O)(CC(=O)O)C(=O)O` (centres unmarked) [Agaric acid], for which, at human CYP2C9 [1], the “CYP2C9 AC50” value is given as “Inactive”. On human CYP2D6, the “CYP2D6 AC50” value is listed as “Inconclusive inhibitor”. The same compound gave an AC50 at CYP3A4 of 32.4 µM. In addition, on human CYP2C19 [2], the “CYP2C19 AC50” value is “Inconclusive activator”. Besides, the “CYP1A2 AC50” value at human CYP1A2 is recorded as “Inactive”.
In the case of `CCOC(=O)CC(CC(=O)OCC)(OC(C)=O)C(=O)OCC` [Acetyltriethyl citrate], the concentration at half-maximal activity (AC50) at human CYP2C9 [1] was found to be 30.6 µM; on CYP3A4 it was 43.5 µM; at human CYP2C19 [2] it was 18.1 µM. In addition, the “CYP2D6 AC50” value on human CYP2D6 is recorded as “Inactive”. In addition, the “CYP1A2 AC50” value at human CYP1A2 was “Inconclusive inhibitor”.
With `CC1(C)[C@H](C(=O)OCc2cccc(Oc3ccccc3)c2)[C@@H]1C=C(Cl)Cl` [cis-Permethrin in cyclohexane], at human CYP2C9 [1], the “CYP2C9 AC50” value is recorded as “Inactive”. Further, at human CYP2D6, the “CYP2D6 AC50” value is on record as “Inactive”. Moreover, the “CYP3A4 AC50” value at CYP3A4 is listed as “Inactive”. Also, the “CYP2C19 AC50” value at human CYP2C19 [2] is “Inactive”. In addition, at human CYP1A2, the “CYP1A2 AC50” value was “Inactive”.
As to `O=C1C=CC(=O)N1c1cccc(N2C(=O)C=CC2=O)c1` [N,N'-1,3-Phenylenedimaleimide], the half-maximal activity concentration (AC50) turned out to be 5.22 µM on human CYP2C9 [1]; 36.3 µM on human CYP2D6; 9.83 µM on CYP3A4; 7.04 µM at human CYP2C19 [2]; 12.7 µM on human CYP1A2.
Turning to `CC(C)C(=O)OCCOc1ccccc1` [Phenoxyethyl isobutyrate], the AC50 on human CYP2C9 [1] worked out at 36 µM; on CYP3A4, 22.6 µM; at human CYP2C19 [2], 38.5 µM; on human CYP1A2, 31.9 µM. In addition, the “CYP2D6 AC50” value on human CYP2D6 was “Inactive”.
Consider `CCC(C)(C)C1CCC(O)CC1` (centres unmarked) [4-(2-Methylbutan-2-yl)cyclohexanol], for which the “CYP2C9 AC50” value at human CYP2C9 [1] is “Inactive”. Also, the “CYP2D6 AC50” value on human CYP2D6 is “Inactive”. Further, on CYP3A4, the activity was half-maximal at 9.66 µM (AC50). Also, on human CYP2C19 [2], the “CYP2C19 AC50” value was “Inactive”. Also, the “CYP1A2 AC50” value on human CYP1A2 is listed as “Inconclusive inhibitor”.
`O=C(O)c1cc(Br)c(O)c(Br)c1` [3,5-Dibromo-4-hydroxybenzoic acid]: the AC50 at human CYP2C9 [1] is 68.4 µM; on CYP3A4, 35.7 µM; at human CYP2C19 [2], 23.8 µM; at human CYP1A2, 35.7 µM. For the same compound, the “CYP2D6 AC50” value on human CYP2D6 was “Inconclusive inhibitor”.
On to `COC(=O)c1ccccc1C(=O)c1ccc(OCCN2CCCCC2)cc1.Cl` [Pitofenone hydrochloride], for which the “CYP2C9 AC50” value on human CYP2C9 [1] was “Inactive”. The concentration at half-maximal activity (AC50) at human CYP2D6 worked out at 14.9 µM; at CYP3A4, 15.5 µM. Further, the “CYP2C19 AC50” value at human CYP2C19 [2] is reported as “Inactive”. Besides, the “CYP1A2 AC50” value at human CYP1A2 is listed as “Inactive”.
As for `COC(=O)c1ccc(C(=O)OC)c(C(=O)OC)c1` [Trimethyl benzene-1,2,4-tricarboxylate], at human CYP2C9 [1], the “CYP2C9 AC50” value is “Inactive”. The “CYP2D6 AC50” value on human CYP2D6 is “Inactive”. Also, the AC50 amounted to 49.9 µM on CYP3A4, 32.3 µM on human CYP2C19 [2] and 7.19 µM at human CYP1A2.
Turning to `O=S1(=O)CC(Cl)(Cl)C(Cl)(Cl)C1`, the AC50 was 27.5 µM at human CYP2C9 [1]; 48.8 µM on human CYP2D6; 30.8 µM at CYP3A4; 60.4 µM on human CYP2C19 [2]; 31.2 µM at human CYP1A2.
With `CC(C)c1ccc2ncccc2c1` [6-(1-Methylethyl)quinoline], the “CYP2C9 AC50” value at human CYP2C9 [1] was “Inactive”. The “CYP2D6 AC50” value at human CYP2D6 is “Inactive”. The figures for the AC50 on CYP3A4 and on human CYP1A2 were 35 µM and 46.2 µM, respectively. Moreover, at human CYP2C19 [2], the “CYP2C19 AC50” value is given as “Inactive”.
`CCC(=O)OCCOc1ccccc1` [Phenoxyethyl propionate]: on human CYP2C9 [1], the “CYP2C9 AC50” value is “Inconclusive”. The “CYP2D6 AC50” value at human CYP2D6 is “Inactive”. In addition, the AC50 at CYP3A4 is 47.1 µM; at human CYP1A2, 55.5 µM. The “CYP2C19 AC50” value at human CYP2C19 [2] is “Inconclusive inhibitor”.
Regarding `CCCCCCC(O)CCCCCCCCCCC(=O)OC` (centres unmarked) [Methyl 12-hydroxyoctadecanoate], the figures for the AC50 on human CYP2C9 [1] and at CYP3A4 were 23.8 µM and 27.7 µM, respectively. Moreover, the “CYP2D6 AC50” value at human CYP2D6 is “Inactive”. Further, the “CYP2C19 AC50” value on human CYP2C19 [2] was “Inactive”. Further, the “CYP1A2 AC50” value at human CYP1A2 is “Inconclusive inhibitor”.
On to `O=C(CCC1CCN(Cc2ccccc2)CC1)c1ccc2c(c1)NCCCC2.O=C(O)/C=C/C(=O)O` [Zanapezil fumerate], for which, on human CYP2C9 [1], the “CYP2C9 AC50” value is reported as “Inconclusive inhibitor”. In addition, the results for the AC50 on human CYP2D6 and at CYP3A4 were 7.12 µM and 3.4 µM, respectively. For the same compound, the “CYP2C19 AC50” value at human CYP2C19 [2] was “Inactive”. Also, on human CYP1A2, the “CYP1A2 AC50” value was “Inconclusive inhibitor”.
On to `O=C(O)C(F)(F)C(F)(F)C(F)(F)C(F)(F)C(F)(F)F` [PFHxA], for which the AC50 was determined as 17.5 µM at human CYP2C9 [1] and 58.1 µM at CYP3A4. Also, the “CYP2D6 AC50” value at human CYP2D6 was “Inconclusive inhibitor”. Besides, on human CYP2C19 [2], the “CYP2C19 AC50” value is reported as “Inactive”. Further, the “CYP1A2 AC50” value on human CYP1A2 is “Inactive”.
Turning to `O=S(=O)(c1ccc(O)cc1)c1ccc(O)cc1` [4,4'-Sulfonyldiphenol], the “CYP2D6 AC50” value on human CYP2D6 is given as “Inactive”. Also, the “CYP3A4 AC50” value on CYP3A4 was “Inactive”. Also, the AC50 at human CYP2C19 [3] came out at 16.4 µM; at human CYP2C9 [4], 1.34 µM. Moreover, the “CYP1A2 AC50” value on human CYP1A2 is given as “Inconclusive inhibitor”.

Values taken from article PMC12155096 (International Journal of Molecular Sciences, 2025).
